Assay results published in EP4623702A1, “ORAL PRODUCT” (Nicoventures Trading Limited, priority 2024, dated 2025).
Where two headings read alike, the source gives them in different places.

Tests used:
[1] = target: P-gp (MDR1, ABCB1), human (Homo sapiens, UniProt P08183); assay: in vitro; settings: dog, MDCK-MDR1, pH 7.4
[2] = target: T1, MDCK-MDR1 cell line heterologously expressing the human P-gp transporter (MDR1) (Homo sapiens, UniProt P08183); settings: for effect of quercetin on BBB permeability of the compound: MDCK-MDR1
[3] = target: T1, MDCK-MDR1 cell line heterologously expressing the human P-gp transporter (MDR1); assay: in vitro; settings: dog, MDCK-MDR1, pH 7.4
[4] = target: T1, MDCK-MDR1 cell line heterologously expressing the human P-gp transporter (MDR1); assay: MDCK-MDR1 permeability assay (in vitro model for BBB permeation, P-gp substrate identification, with/without inhibitors); settings: Compound Alone; apical to basolateral; 1 or 10 µM, 60 minutes, pH 7.4 (Table 2)
[5] = target: p-glycoprotein (Homo sapiens, UniProt P08183); settings: value stated as basis for the 30 µM inhibitor concentration; no source given; cited from earlier work
p-glycoprotein, sequence (P08183 whole entry): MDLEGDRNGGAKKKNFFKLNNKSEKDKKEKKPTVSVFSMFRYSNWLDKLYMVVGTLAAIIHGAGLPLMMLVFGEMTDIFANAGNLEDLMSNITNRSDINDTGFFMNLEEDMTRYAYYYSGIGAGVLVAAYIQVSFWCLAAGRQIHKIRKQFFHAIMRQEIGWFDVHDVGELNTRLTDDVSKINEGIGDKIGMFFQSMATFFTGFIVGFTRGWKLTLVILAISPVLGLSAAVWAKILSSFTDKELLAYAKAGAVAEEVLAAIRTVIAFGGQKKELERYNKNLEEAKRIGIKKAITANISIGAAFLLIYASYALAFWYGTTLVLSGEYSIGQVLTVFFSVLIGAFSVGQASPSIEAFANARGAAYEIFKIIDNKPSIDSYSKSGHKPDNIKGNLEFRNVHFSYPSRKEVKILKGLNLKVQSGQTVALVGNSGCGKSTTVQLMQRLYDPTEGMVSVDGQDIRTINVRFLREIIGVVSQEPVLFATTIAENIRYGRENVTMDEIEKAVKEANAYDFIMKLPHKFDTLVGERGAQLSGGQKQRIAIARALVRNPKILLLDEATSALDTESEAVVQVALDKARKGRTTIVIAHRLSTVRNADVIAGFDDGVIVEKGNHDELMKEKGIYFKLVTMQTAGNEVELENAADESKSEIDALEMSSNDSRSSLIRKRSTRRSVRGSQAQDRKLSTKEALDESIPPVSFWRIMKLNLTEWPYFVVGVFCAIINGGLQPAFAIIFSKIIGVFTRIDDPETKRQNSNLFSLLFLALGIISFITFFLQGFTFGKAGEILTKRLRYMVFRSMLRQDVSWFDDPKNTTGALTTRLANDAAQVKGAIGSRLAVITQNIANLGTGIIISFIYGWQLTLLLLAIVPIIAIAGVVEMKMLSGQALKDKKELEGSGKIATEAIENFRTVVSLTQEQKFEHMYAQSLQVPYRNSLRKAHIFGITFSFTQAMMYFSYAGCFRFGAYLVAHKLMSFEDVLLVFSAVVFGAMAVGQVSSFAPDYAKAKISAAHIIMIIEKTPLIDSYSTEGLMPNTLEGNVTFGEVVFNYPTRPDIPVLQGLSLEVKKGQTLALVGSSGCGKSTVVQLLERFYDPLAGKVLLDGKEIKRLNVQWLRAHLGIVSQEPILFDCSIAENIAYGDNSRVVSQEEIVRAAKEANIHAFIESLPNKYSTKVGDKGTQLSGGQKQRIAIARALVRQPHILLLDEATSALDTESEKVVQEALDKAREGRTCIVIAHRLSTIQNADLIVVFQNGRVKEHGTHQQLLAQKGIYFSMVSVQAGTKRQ

P-gp (MDR1, ABCB1), human, sequence (P08183 whole entry): as above
T1 sequence (P08183 whole entry): as above

O=c1cc(-c2ccc(O)cc2)oc2cc(O)cc(O)c12 [Apigenin]
Papp A→B at 60 min [1]: 9.71 ×10⁻⁶ cm/s | Papp B→A at 60 min [1]: 19.1 ×10⁻⁶ cm/s | Papp at 60 min [1]: 1 to 10 ×10⁻⁶ cm/s | A2B Apparent permeability (Papp) ([2]; dog, MDCK-MDR1, 60 min, pH 7.4): 9.71 ×10⁻⁶ cm/s

CC(/C=C/C=C(\C)C(=O)O)=C\C=C\C=C(C)\C=C\C=C(/C)C(=O)O [Crocetin]
Papp A→B at 60 min [1]: 1.67 ×10⁻⁶ cm/s | Papp B→A at 60 min [1]: 5.84 ×10⁻⁶ cm/s | Papp at 60 min [1]: 1 to 10 ×10⁻⁶ cm/s | A2B Apparent permeability (Papp) ([2]; dog, MDCK-MDR1, 60 min, pH 7.4): 1.67 ×10⁻⁶ cm/s

CC(/C=C/C=C(\C)C(=O)O[C@@H]1O[C@H](CO[C@@H]2O[C@H](CO)[C@@H](O)[C@H](O)[C@H]2O)[C@@H](O)[C@H](O)[C@H]1O)=C\C=C\C=C(C)\C=C\C=C(/C)C(=O)O[C@@H]1O[C@H](CO[C@@H]2O[C@H](CO)[C@@H](O)[C@H](O)[C@H]2O)[C@@H](O)[C@H](O)[C@H]1O [Crocin]
Papp A→B at 60 min [1]: 0.22 ×10⁻⁶ cm/s | Papp B→A at 60 min [1]: 3.12 ×10⁻⁶ cm/s | Papp at 60 min [1]: < 1 ×10⁻⁶ cm/s | A2B Apparent permeability (Papp) ([2]; dog, MDCK-MDR1, 60 min, pH 7.4): 0.22 ×10⁻⁶ cm/s

O=C(O)[C@H]1O[C@@H](Oc2cc(O)c3c(=O)cc(-c4ccc(O)c(O)c4)oc3c2)[C@H](O)[C@@H](O)[C@@H]1O [Luteolin-7-glucoronide, Luteolin 7-glucuronide]
Papp A→B at 1 h [3]: 0.205 ×10⁻⁶ cm/s | Papp B→A at 1 h [3]: 0.076 ×10⁻⁶ cm/s | A2B Apparent permeability (Papp) ([2]; MDCK-MDR1, pH 7.4): 0.175 ×10⁻⁶ cm/s | B2A Apparent permeability (Papp) ([2]; MDCK-MDR1, pH 7.4): 0.134 ×10⁻⁶ cm/s

CC1(C)CC[C@]2(C(=O)O)CC[C@]3(C)C(=CC[C@@H]4[C@@]5(C)CC[C@H](O)C(C)(C)[C@@H]5CC[C@]43C)[C@@H]2C1 [Oleanoic acid, Oleanolic acid]
Papp A→B at 60 min [1]: 0.174 ×10⁻⁶ cm/s | Papp B→A at 60 min [1]: 0.35 ×10⁻⁶ cm/s | Papp at 60 min [1]: < 1 ×10⁻⁶ cm/s | A2B Apparent permeability (Papp) [4]: 0.174 ×10⁻⁶ cm/s

O=C(/C=C/C=C/c1ccc2c(c1)OCO2)N1CCCCC1 [Piperine, (2E,4E)-5-(2H-1,3-benzodioxol-5-yl)-1-(piperidin-1-yl)-penta-2,4-dien-1-one]
EC50 [5]: 30 µM

CC1=C(C=O)C(C)(C)CC=C1 [Safranal]
Papp A→B at 1 h [3]: 90 ×10⁻⁶ cm/s | Papp B→A at 1 h [3]: 43.3 ×10⁻⁶ cm/s

CC1=C(C)C(=O)O[C@@H]([C@](C)(O)[C@H]2CC[C@H]3[C@@H]4[C@@H]5O[C@@H]5[C@@]5(O)CC=CC(=O)[C@]5(C)[C@H]4CC[C@]23C)C1 [Withanolide A]
Papp A→B at 1 h [3]: 3.65 ×10⁻⁶ cm/s | Papp B→A at 1 h [3]: 22.2 ×10⁻⁶ cm/s | effect of quercetin on BBB permeability of the compound [2]: did not, for instance, significantly enhance | A2B Apparent permeability (Papp) ([2]; MDCK-MDR1, pH 7.4): 17.3 ×10⁻⁶ cm/s | B2A Apparent permeability (Papp) ([2]; MDCK-MDR1, pH 7.4): 20 ×10⁻⁶ cm/s

CC1=C(C)C(=O)O[C@@H]([C@@H](C)[C@H]2CC[C@H]3[C@@H]4[C@@H]5O[C@@H]5[C@@]5(O)CC=CC(=O)[C@]5(C)[C@H]4CC[C@]23C)C1 [Withanolide B]
Papp A→B at 1 h [3]: 12 ×10⁻⁶ cm/s | Papp B→A at 1 h [3]: 13.3 ×10⁻⁶ cm/s | A2B Apparent permeability (Papp) ([2]; MDCK-MDR1, pH 7.4): 13.5 ×10⁻⁶ cm/s | B2A Apparent permeability (Papp) ([2]; MDCK-MDR1, pH 7.4): 11.6 ×10⁻⁶ cm/s

CC1=C(C)C(=O)O[C@@H]([C@@H](C)[C@@]2(O)CC[C@H]3[C@@H]4[C@@H]5O[C@@H]5[C@@]5(O)CC=CC(=O)[C@]5(C)[C@H]4CC[C@@]32C)C1 [Withanone]
Papp A→B [1]: 1.23 ×10⁻⁶ cm/s | Papp B→A [1]: 31.6 ×10⁻⁶ cm/s | effect of quercetin on BBB permeability of the compound [2]: did not, for instance, significantly enhance | B2A Apparent permeability (Papp) ([2]; dog, MDCK-MDR1, pH 7.4): 19.7 ×10⁻⁶ cm/s
